Molecular target: T1, ENaC (Epithelial Sodium Channel) (Mus musculus, UniProt Q61180+Q9WU38+Q9WU39)
T1 construct: Mouse kidney M-1 cells were cultivated in DMEM containing 5% FCS and 5 μM dexamethasone; endogenous in cells; host or cells: Mouse kidney M-1 cells
T1 sequence (Q61180 1-699): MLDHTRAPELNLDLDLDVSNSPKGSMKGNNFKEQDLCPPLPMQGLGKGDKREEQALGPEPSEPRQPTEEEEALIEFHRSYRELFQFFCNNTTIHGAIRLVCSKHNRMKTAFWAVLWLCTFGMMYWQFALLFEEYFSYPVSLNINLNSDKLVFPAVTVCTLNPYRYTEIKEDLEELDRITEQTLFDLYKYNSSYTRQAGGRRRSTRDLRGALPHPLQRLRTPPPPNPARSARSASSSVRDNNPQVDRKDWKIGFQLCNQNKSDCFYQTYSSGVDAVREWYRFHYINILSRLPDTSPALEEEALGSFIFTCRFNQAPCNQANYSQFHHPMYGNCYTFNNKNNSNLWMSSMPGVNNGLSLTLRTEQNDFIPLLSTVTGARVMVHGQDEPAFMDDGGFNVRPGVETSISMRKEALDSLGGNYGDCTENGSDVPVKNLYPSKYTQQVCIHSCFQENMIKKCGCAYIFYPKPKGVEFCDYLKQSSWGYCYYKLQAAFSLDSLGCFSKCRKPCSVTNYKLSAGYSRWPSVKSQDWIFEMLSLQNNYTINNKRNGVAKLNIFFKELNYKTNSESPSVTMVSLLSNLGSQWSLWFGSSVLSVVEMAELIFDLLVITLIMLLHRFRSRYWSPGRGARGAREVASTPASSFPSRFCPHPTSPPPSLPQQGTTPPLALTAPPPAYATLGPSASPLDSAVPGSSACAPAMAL
T1 sequence (Q9WU38 1-638): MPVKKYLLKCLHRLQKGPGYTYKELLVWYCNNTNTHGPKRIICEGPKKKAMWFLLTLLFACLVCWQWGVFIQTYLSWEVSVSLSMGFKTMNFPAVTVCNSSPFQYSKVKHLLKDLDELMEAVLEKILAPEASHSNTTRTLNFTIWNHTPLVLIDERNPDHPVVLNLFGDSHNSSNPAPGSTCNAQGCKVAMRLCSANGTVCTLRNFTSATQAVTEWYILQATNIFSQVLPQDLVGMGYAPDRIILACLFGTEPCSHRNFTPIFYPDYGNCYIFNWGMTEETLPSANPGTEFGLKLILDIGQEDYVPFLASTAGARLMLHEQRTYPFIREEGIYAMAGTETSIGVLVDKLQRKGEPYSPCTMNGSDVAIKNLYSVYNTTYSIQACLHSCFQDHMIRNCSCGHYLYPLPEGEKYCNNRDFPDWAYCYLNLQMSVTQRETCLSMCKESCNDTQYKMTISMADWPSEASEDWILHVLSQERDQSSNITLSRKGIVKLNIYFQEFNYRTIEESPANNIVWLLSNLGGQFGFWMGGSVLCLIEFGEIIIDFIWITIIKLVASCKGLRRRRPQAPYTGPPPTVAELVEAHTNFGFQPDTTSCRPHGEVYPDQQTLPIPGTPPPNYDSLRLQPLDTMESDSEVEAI
T1 sequence (Q9WU39 1-655): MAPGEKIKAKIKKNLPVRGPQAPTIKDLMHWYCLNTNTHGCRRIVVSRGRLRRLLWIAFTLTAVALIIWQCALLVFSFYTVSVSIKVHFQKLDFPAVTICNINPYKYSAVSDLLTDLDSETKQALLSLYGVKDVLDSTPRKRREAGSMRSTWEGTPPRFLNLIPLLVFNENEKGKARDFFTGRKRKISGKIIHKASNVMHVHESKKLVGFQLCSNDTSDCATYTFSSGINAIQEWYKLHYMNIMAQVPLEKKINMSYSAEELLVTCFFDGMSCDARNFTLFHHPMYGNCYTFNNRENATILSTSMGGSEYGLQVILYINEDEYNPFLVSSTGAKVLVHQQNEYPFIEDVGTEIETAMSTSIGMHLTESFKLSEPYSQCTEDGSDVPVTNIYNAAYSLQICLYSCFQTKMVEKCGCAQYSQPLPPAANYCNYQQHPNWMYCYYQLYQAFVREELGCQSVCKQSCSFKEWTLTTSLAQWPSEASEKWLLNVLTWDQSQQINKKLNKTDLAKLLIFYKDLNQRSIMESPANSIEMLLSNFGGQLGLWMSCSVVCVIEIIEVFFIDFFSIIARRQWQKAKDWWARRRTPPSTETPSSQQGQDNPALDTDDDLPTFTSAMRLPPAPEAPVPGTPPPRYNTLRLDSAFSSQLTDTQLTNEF
Assay: Ussing Chamber assay (short circuit current, amiloride sensitive I_SC) in M-1 cells
Format: cell-based
Settings: Mouse kidney M-1 cells, apical application, 37° C.
Procedure: The IC50 values of the example compounds given above were determined in the Ussing Chamber assay.
Ussing Chamber: Mouse kidney M-1 cells were cultivated in DMEM containing 5% FCS and 5 μM dexamethasone for 10 to 12 days on polyester transwell filters. Filters were inserted into a teflon-coated well-plate which fit into the ussing chamber system. Prior to measurement the medium of M-1 cells was replaced with Caco-2 transport buffer (Invitrogen, Germany). During measurements, the Ussing chamber temperature was kept at 37° C. Short circuit currents (I_sc) were measured in the voltage-clamp mode with the software package Lab View for data acquisition and analysis. The transepithelial electrical resistance (TEER) was determined by the application of voltage steps of ±5 mV every 5 sec. Compounds were administered at a final concentration of 3 μM or at increasing concentrations (1-3-10 μM) to the apical solution. At the end of each experiment the amiloride sensitive I_SC was measured by adding 3 μM amiloride to the apical compartment. Results are expressed as inhibition in percent of the amiloride effect or as IC50.

Row | IC50 [nM] | Compound
1 | 2 | CCn1c(CNC(=O)c2nc(Cl)c(N)nc2N)[n+](CC)c2ccc(OCCNC(=O)CN3CCOCC3)cc21 [Example 4.02]
2 | 0.4 | CCn1c(CNC(=O)c2nc(Cl)c(N)nc2N)[n+](CC)c2ccc(CNC(=O)Cc3ncccc3O)cc21 [Example 4.03]
3 | 1 | CCN(CC)CC(=O)NCCOc1ccc2c(c1)n(CC)c(CNC(=O)c1nc(Cl)c(N)nc1N)[n+]2CC [Example 4.04]
4 | 0.4 | CCn1c(CNC(=O)c2nc(Cl)c(N)nc2N)[n+](CC)c2ccc(OCCNC(=O)CN3CCN(C)CC3)cc21 [Example 4.05]
5 | 0.3 | CCn1c(CNC(=O)c2nc(Cl)c(N)nc2N)[n+](CC)c2ccc(OCCNC(=O)C3CCCN3C)cc21 (stereo not shown) [Example 4.06]
6 | 1 | CCn1c(CNC(=O)c2nc(Cl)c(N)nc2N)[n+](CC)c2ccc(OCCNC(=O)CN3CCCC3)cc21 [Example 4.07]
7 | 2 | CCn1c(CNC(=O)c2nc(Cl)c(N)nc2N)[n+](CC)c2ccc(OCCNC(=O)[C@H](C)N(C)C(=O)OC(C)(C)C)cc21 [Example 4.08]
8 | 1 | CCn1c(CNC(=O)c2nc(Cl)c(N)nc2N)[n+](CC)c2ccc(OCCNC(=O)CN3CCC(NC(=O)OC(C)(C)C)CC3)cc21 [Example 4.10]
9 | 2 | CCn1c(CNC(=O)c2nc(Cl)c(N)nc2N)[n+](CC)c2ccc(OCCNC(=O)C3CCCN3C(=O)OC(C)(C)C)cc21 (stereo not shown) [Example 4.11]
10 | 2 | CCOc1cc2c(cc1C(=O)N1CCN(C(=O)Cc3ccccn3)CC1)[n+](CC)c(CNC(=O)c1nc(Cl)c(N)nc1N)n2CC [Example 4.12]
11 | 4 | CCNC(=O)COc1cc2c(cc1C(=O)NC1CCN(C(C)=O)CC1)[n+](CC)c(CNC(=O)c1nc(Cl)c(N)nc1N)n2CC [Example 4.13]

The remaining lines, values behind:

Row | Compound | IC50 [nM]
12 | CC[n+]1c(CNC(=O)c2nc(Cl)c(N)nc2N)n(CC2CCCCC2)c2cc(OCC[n+]3cccc(O)c3)ccc21 [Example 1.03] | 5
13 | CC[n+]1c(CNC(=O)c2nc(Cl)c(N)nc2N)n(CCO)c2cc(OCC(=O)NC3CCN(C(C)=O)CC3)ccc21 [Example 1.04] | 2
14 | CCCCCC(=O)N(CCOc1ccc2c(c1)n(C[C@H](C)O)c(CNC(=O)c1nc(Cl)c(N)nc1N)[n+]2CC)CP(C)(C)=O [Example 1.06] | 2
15 | CCCn1c(CNC(=O)c2nc(Cl)c(N)nc2N)[n+](C)c2ccc(OCC(=O)N(C)Cc3nc(C)ccc3O)cc21 [Example 1.07] | 3
16 | CCOc1cc2c(cc1C(=O)N1CCN(C(=O)OC(C)(C)C)CC1)[n+](CC)c(CNC(=O)c1nc(Cl)c(N)nc1N)n2CC [Example 1.09] | 7
17 | CCCCCOc1cc2c(cc1C(=O)N1CCN(C(=O)OC(C)(C)C)CC1)[n+](CC)c(CNC(=O)c1nc(Cl)c(N)nc1N)n2C[C@H](C)O [Example 1.10] | 52
18 | CCNC(=O)c1cc2c(cc1OCC(=O)OC(C)(C)C)n(CC)c(CNC(=O)c1nc(Cl)c(N)nc1N)[n+]2CC [Example 1.11] | 10
19 | CCn1c(CNC(=O)c2nc(Cl)c(N)nc2N)[n+](CC)c2cc(C(=O)NC3CCN(C(=O)OC(C)(C)C)CC3)c(OCC(=O)OC(C)(C)C)cc21 [Example 1.13] | 9
20 | CCn1c(CNC(=O)c2nc(Cl)c(N)nc2N)[n+](CCO)c2cc(OCC(=O)N3CCN(C(C)=O)CC3)ccc21 [Example 1.14] | 3
21 | CCCCCCN(C)C(=O)c1cc2c(cc1N1C[C@H](O)[C@@H](O)C1)n(CCO)c(CNC(=O)c1nc(Cl)c(N)nc1N)[n+]2CC [Example 1.16] | 11
22 | CCCn1c(CNC(=O)c2nc(Br)c(N)nc2N)[n+](C)c2ccc(OCC(=O)N(C)Cc3nc(C)ccc3O)cc21 [Example 2.01] | 1
23 | CCn1c(CNC(=O)c2nc(Cl)c(N)nc2N)[n+](CC)c2ccc(OCC(=O)N(C)Cc3nc(C)ccc3[O-])cc21 [Example 3.02] | 0.4
24 | CCn1c(CNC(=O)c2nc(Cl)c(N)nc2N)[n+](CC)c2ccc(OCC(=O)Nc3cncc([O-])c3)cc21 [Example 3.03] | 0.3
25 | CCCCCCN1CCC(NC(=O)COc2ccc3c(c2)n(CC)c(CNC(=O)c2nc(Cl)c(N)nc2N)[n+]3CC)CC1 [Example 3.04] | 0.6
26 | CCn1c(CNC(=O)c2nc(Cl)c(N)nc2N)[n+](CC)c2cc(F)c(C(=O)NCCCN(C)C)cc21 [Example 3.07] | 1
27 | CCn1c(CNC(=O)c2nc(Cl)c(N)nc2N)[n+](CC)c2ccc(C(=O)NCCNC(C)=O)cc21 [Example 3.08] | 0.4
28 | CCN1CCC(NC(=O)COc2ccc3c(c2)n(CC)c(CNC(=O)c2nc(Cl)c(N)nc2N)[n+]3CC)CC1 [Example 3.09] | 0.2
29 | CCNC(=O)CN1CCC(NC(=O)c2cc3c(cc2F)[n+](CC)c(CNC(=O)c2nc(Cl)c(N)nc2N)n3CC)CC1 [Example 3.10] | 1
30 | CCn1c(CNC(=O)c2nc(Cl)c(N)nc2N)[n+](CC)c2ccc(OCC(=O)Nc3cncc(OCc4ccccc4)c3)cc21 [Example 3.13] | 2
31 | CCn1c(CNC(=O)c2nc(Cl)c(N)nc2N)[n+](CC)c2ccc(C(=O)NCCNS(C)(=O)=O)cc21 [Example 3.14] | 0.4
32 | CCn1c(CNC(=O)c2nc(Cl)c(N)nc2N)[n+](CC)c2cc(C(=O)N3CCN(C(=O)N4CCOCC4)CC3)c(F)cc21 [Example 3.15] | 1
33 | CCNC(=O)c1cc2c(cc1OCC(=O)NC1CCN(C)CC1)n(CC)c(CNC(=O)c1nc(Cl)c(N)nc1N)[n+]2CC [Example 3.18] | 4
34 | CCNC(=O)c1cc2c(cc1OCC(=O)NC1CCN(C(=O)OC(C)(C)C)CC1)n(CC)c(CNC(=O)c1nc(Cl)c(N)nc1N)[n+]2CC [Example 3.19] | 9
35 | CCCCCCN1CCC(NC(=O)COc2cc3c(cc2C(=O)NCC)[n+](CC)c(CNC(=O)c2nc(Cl)c(N)nc2N)n3CC)CC1 [Example 3.20] | 15
36 | CCNC(=O)c1cc2c(cc1OCC(=O)NCCOC)n(CC)c(CNC(=O)c1nc(Cl)c(N)nc1N)[n+]2CC [Example 3.21] | 9
37 | CCn1c(CNC(=O)c2nc(Cl)c(N)nc2N)[n+](CC)c2cc(C(=O)NC3CCNCC3)c(OCC(=O)NC3CCN(C)CC3)cc21 [Example 3.22] | 10
38 | CCNC(=O)COc1cc2c(cc1C(=O)NC1CCN(C(=O)OC(C)(C)C)CC1)[n+](CC)c(CNC(=O)c1nc(Cl)c(N)nc1N)n2CC [Example 3.23] | 8
39 | CCn1c(CNC(=O)c2nc(Cl)c(N)nc2N)[n+](CC)c2ccc(OCC(=O)NC3CCNCC3)cc21 [Example 3.24] | 0.1
40 | CCn1c(CNC(=O)c2nc(Cl)c(N)nc2N)[n+](CC)c2ccc(OCC(=O)NCCN)cc21 [Example 3.25] | 1
